Data taken from patent US6355799B1, “Substituted benzene compounds, process for their preparation, and herbicidal and defoliant compositions containing them” (ISK Americas Incorporated, priority 1997, dated 2002).

Key:
Type in all cases: in vivo
[1] = test system: lambsquarters (Chenopodium album, CHEAL); assay: Pre-emerge test, greenhouse herbicide activity screening; conditions: rating scale 0-100, 14 days after application
Procedure, shortened: (§1)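 Fourteen days after spraying, crop and weed injury was graded visually from 0, no effect, to 100, every plant dead. Test substances were dissolved in acetone and applied at 15–1000 g ai/ha with a flat-fan nozzle. Application was either pre-emergence, one day after sowing, or post-emergence at the 2–3 leaf stage.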

[2] = test system: ivyleaf morningglory (Ipomoea hederacea, IPOHE); assay: as above; conditions: rating scale 0-100, 14 days after application
Procedure, shortened: as §1

[3] = test system: johnsongrass (Sorghum halepense, SORHA); assay: as above; conditions: rating scale 0-100, 14 days after application
Procedure, shortened: as §1

[4] = test system: large crabgrass (Digitaria sanguinalis, DIGSA); assay: as above; conditions: rating scale 0-100, 14 days after application
Procedure, shortened: as §1

[5] = test system: barnyardgrass (Echinochloa crus-galli, ECHCG); assay: as above; conditions: rating scale 0-100, 14 days after application
Procedure, shortened: as §1

[6] = test system: sicklepod (Cassia obtusifolia, CASOB); assay: as above; conditions: rating scale 0-100, 14 days after application
Procedure, shortened: as §1

[7] = test system: velvetleaf (Abutilon theophrasti, ABUTH); assay: as above; conditions: rating scale 0-100, 14 days after application
Procedure, shortened: as §1

[8] = test system: green foxtail (Setaria viridis, SETVI); assay: as above; conditions: rating scale 0-100, 14 days after application
Procedure, shortened: as §1

[9] = test system: upland rice (Oryza sp., var. Tebonnet, RICE); assay: Pre-emerge test, crop safety; conditions: rating scale 0-100, 14 days after application
Procedure, shortened: (§2)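 Compounds in acetone were track-sprayed at 15-1000 g ai/ha (187 l/ha) on sandy loam pots: pre-emerge one day after seeding, post-emerge at 2-3 leaf stage with 0.25% v/v non-ionic surfactant. Phytotoxicity was rated 14 days later on a 0 (no damage) to 100 (complete death) scale.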

[10] = test system: field corn (Zea mays L., var. Dekalb 535, CORN); assay: Pre-emerge test, crop safety; conditions: rating scale 0-100, 14 days after application
Procedure, shortened: as §2

[11] = test system: redroot pigweed (Amaranthus retroflexus, AMARE); assay: Pre-emerge test, greenhouse herbicide activity screening; conditions: rating scale 0-100, 14 days after application
Procedure, shortened: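 Visual ratings on a 0-100 scale (0 no damage, 100 all plants dead) were taken at 14 days after treatment. Rates of 15-1000 g ai/ha in acetone, 187 l/ha, were sprayed onto soil one day after planting (pre-emerge) or onto 2-3 leaf plants with 0.25% v/v surfactant (post-emerge).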

[12] = test system: upland rice (Oryza sp., var. Tebonnet, RICE); assay: Post-emerge test, crop safety; conditions: rating scale 0-100 (0 no damage, 100 complete death), 14 days after application
Procedure, shortened: as §1

[13] = test system: field corn (Zea mays L., var. Dekalb 535, CORN); assay: Post-emerge test, crop safety; conditions: rating scale 0-100 (0 no damage, 100 complete death), 14 days after application
Procedure, shortened: as §1

[14] = test system: redroot pigweed (Amaranthus retroflexus, AMARE); assay: Post-emerge test, greenhouse herbicide activity screening; conditions: rating scale 0-100 (0 no damage, 100 complete death), 14 days after application
Procedure, shortened: (§3)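 Each test used a mechanized track sprayer delivering 187 l/ha of acetone solution at 15–1000 g ai/ha. Post-emerge foliage at 2–3 leaves was treated with added 0.25% v/v non-ionic surfactant and bottom-watered only. Injury was assessed on day 14, where 100 means total kill.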

[15] = test system: lambsquarters (Chenopodium album, CHEAL); assay: as above; conditions: rating scale 0-100 (0 no damage, 100 complete death), 14 days after application
Procedure, shortened: as §3

[16] = test system: ivyleaf morningglory (Ipomoea hederacea, IPOHE); assay: as above; conditions: rating scale 0-100 (0 no damage, 100 complete death), 14 days after application
Procedure, shortened: as §3

[17] = test system: johnsongrass (Sorghum halepense, SORHA); assay: as above; conditions: rating scale 0-100 (0 no damage, 100 complete death), 14 days after application
Procedure, shortened: as §3

[18] = test system: large crabgrass (Digitaria sanguinalis, DIGSA); assay: as above; conditions: rating scale 0-100 (0 no damage, 100 complete death), 14 days after application
Procedure, shortened: as §3

[19] = test system: barnyardgrass (Echinochloa crus-galli, ECHCG); assay: as above; conditions: rating scale 0-100 (0 no damage, 100 complete death), 14 days after application
Procedure, shortened: as §3

[20] = test system: common ragweed (Ambrosia artemisizfolia L., AMBEL); assay: as above; conditions: rating scale 0-100 (0 no damage, 100 complete death), 14 days after application
Procedure, shortened: as §3

[21] = test system: sicklepod (Cassia obtusifolia, CASOB); assay: as above; conditions: rating scale 0-100 (0 no damage, 100 complete death), 14 days after application
Procedure, shortened: as §3

[22] = test system: velvetleaf (Abutilon theophrasti, ABUTH); assay: as above; conditions: rating scale 0-100 (0 no damage, 100 complete death), 14 days after application
Procedure, shortened: as §3

[23] = test system: green foxtail (Setaria viridis, SETVI); assay: as above; conditions: rating scale 0-100 (0 no damage, 100 complete death), 14 days after application
Procedure, shortened: as §3

COc1c(Cl)cc(F)c(-n2c(=O)cc(C(F)(F)F)n(C)c2=O)c1CC(C)(Cl)C(=O)OCC(F)(F)C(F)F (stereo not shown) [14-45]
10: Pre-emerge phytotoxicity rating, crop damage RICE ([9]; 63 g ai/ha) | Pre-emerge phytotoxicity rating, crop damage CORN ([10]; 250 g ai/ha)
70: Post-emerge phytotoxicity rating RICE (crop damage) ([12]; Rate 63 g ai/ha) | Post-emerge phytotoxicity rating CORN (crop damage) ([13]; Rate 63 g ai/ha) | Post-emerge Herbicidal Activity, phytotoxicity rating SORHA ([17]; Rate 63 g ai/ha) | Post-emerge Herbicidal Activity, phytotoxicity rating SETVI ([23]; Rate 63 g ai/ha)
30: Pre-emerge herbicidal activity, phytotoxicity rating DIGSA ([4]; 63 g ai/ha) | Post-emerge Herbicidal Activity, phytotoxicity rating CASOB ([21]; Rate 63 g ai/ha) | Post-emerge Herbicidal Activity, phytotoxicity rating CASOB ([21]; Rate 250 g ai/ha)
95: Pre-emerge herbicidal activity, phytotoxicity rating CHEAL ([1]; 63 g ai/ha) | Pre-emerge herbicidal activity, phytotoxicity rating SETVI ([8]; 250 g ai/ha) | Post-emerge Herbicidal Activity, phytotoxicity rating SETVI ([23]; Rate 250 g ai/ha)
99: Pre-emerge herbicidal activity, phytotoxicity rating DIGSA ([4]; 250 g ai/ha)
90: Post-emerge Herbicidal Activity, phytotoxicity rating SORHA ([17]; Rate 250 g ai/ha) | Post-emerge Herbicidal Activity, phytotoxicity rating DIGSA ([18]; Rate 63 g ai/ha)
50: Pre-emerge herbicidal activity, phytotoxicity rating SORHA ([3]; 250 g ai/ha)
100: Pre-emerge herbicidal activity, phytotoxicity rating CHEAL ([1]; 250 g ai/ha) | Pre-emerge herbicidal activity, phytotoxicity rating ABUTH ([7]; 63 g ai/ha) | Pre-emerge herbicidal activity, phytotoxicity rating ABUTH ([7]; 250 g ai/ha) | Pre-emerge herbicidal activity, phytotoxicity rating AMARE ([11]; 63 g ai/ha) | Pre-emerge herbicidal activity, phytotoxicity rating AMARE ([11]; 250 g ai/ha) | Post-emerge phytotoxicity rating RICE (crop damage) ([12]; Rate 250 g ai/ha) | Post-emerge phytotoxicity rating CORN (crop damage) ([13]; Rate 250 g ai/ha) | Post-emerge Herbicidal Activity, phytotoxicity rating AMARE ([14]; Rate 63 g ai/ha) | Post-emerge Herbicidal Activity, phytotoxicity rating AMARE ([14]; Rate 250 g ai/ha) | Post-emerge Herbicidal Activity, phytotoxicity rating CHEAL ([15]; Rate 63 g ai/ha) | Post-emerge Herbicidal Activity, phytotoxicity rating CHEAL ([15]; Rate 250 g ai/ha) | Post-emerge Herbicidal Activity, phytotoxicity rating IPOHE ([16]; Rate 63 g ai/ha) | Post-emerge Herbicidal Activity, phytotoxicity rating IPOHE ([16]; Rate 250 g ai/ha) | Post-emerge Herbicidal Activity, phytotoxicity rating DIGSA ([18]; Rate 250 g ai/ha) | Post-emerge Herbicidal Activity, phytotoxicity rating ECHCG ([19]; Rate 63 g ai/ha) | Post-emerge Herbicidal Activity, phytotoxicity rating ECHCG ([19]; Rate 250 g ai/ha) | Post-emerge Herbicidal Activity, phytotoxicity rating AMBEL ([20]; Rate 63 g ai/ha) | Post-emerge Herbicidal Activity, phytotoxicity rating AMBEL ([20]; Rate 250 g ai/ha) | Post-emerge Herbicidal Activity, phytotoxicity rating ABUTH ([22]; Rate 63 g ai/ha) | Post-emerge Herbicidal Activity, phytotoxicity rating ABUTH ([22]; Rate 250 g ai/ha)
80: Pre-emerge herbicidal activity, phytotoxicity rating ECHCG ([5]; 250 g ai/ha) | Pre-emerge phytotoxicity rating, crop damage RICE ([9]; 250 g ai/ha)
0: Pre-emerge herbicidal activity, phytotoxicity rating IPOHE ([2]; 63 g ai/ha) | Pre-emerge herbicidal activity, phytotoxicity rating IPOHE ([2]; 250 g ai/ha) | Pre-emerge herbicidal activity, phytotoxicity rating SORHA ([3]; 63 g ai/ha) | Pre-emerge herbicidal activity, phytotoxicity rating ECHCG ([5]; 63 g ai/ha) | Pre-emerge herbicidal activity, phytotoxicity rating CASOB ([6]; 63 g ai/ha) | Pre-emerge herbicidal activity, phytotoxicity rating CASOB ([6]; 250 g ai/ha) | Pre-emerge herbicidal activity, phytotoxicity rating SETVI ([8]; 63 g ai/ha) | Pre-emerge phytotoxicity rating, crop damage CORN ([10]; 63 g ai/ha)
